Source: US20170209579A1, “NON-INVASIVE RADIOFREQUENCY FIELD TREATMENT FOR CANCER THERAPY” (Baylor College of Medicine, priority 2014, published 2017)

Assays:
[1] = tested on: γ-H2AX in Hep3B xenografts; assay: γ-H2AX fluorescence immunohistochemistry in Hep3B xenografts; type: in vivo, mouse
Experimental: (30A) Sites of DNA damage were evaluated using fluorescence immunohistochemistry for γ-H2AX. Also note the increased nuclear fragmentation in the DAPI channel for combination therapy groups.
Tumor tissues harvested at the end of the experiment were fixed in 10% buffered formalin (pH 7.0) for 24 hours and subsequently stored in 70% ethanol (v/v) before embedding them in paraffin. For immunohistochemistry, 5-micron sections were placed on a glass slide and tissue sections were de-paraffinized and rehydrated. Antigen retrieval was performed in citrate buffer at pH 6.0. The slides were placed in Tris-buffer (pH 8.0) before further processing.
For fluorescence immunohistochemistry, a protocol similar to that used for immunocytochemistry (described above) was used with some modifications described here. Tris-buffer was removed and tumor section was encircled using a pap pen (Electron microscopy sciences, Hatfield, Pa.). For blocking, 5% (w/v) BSA and 3% (v/v) NGS was used instead of 3% BSA and 1% NGS, respectively. Imaging was performed as for immunocytochemistry.
Development of mouse models and details of RF exposure and thermography are discussed in FIGS. 25 and 26. Mice bearing Hep3B orthotopic tumors were randomized to one of five groups: untreated, RF exposure alone, gemcitabine alone, gemcitabine followed 24 hours later by RF exposure, or RF exposure immediately followed by gemcitabine. The treatments were administered twice a week for three weeks for a total of six treatments. The gemcitabine dose administered was […] or 150 mg/kg/week. This is approximately half the dose used in humans (1000 mg/m2/week dose in a 1.7 m human=˜300 mg/kg/week dose in a mouse). Twenty-four hours after the last treatment, mice were killed and tumors were harvested, weighed, and fixed in formalin for later analysis (FIG. 19A). […]

[2] = tested on: Hep3B orthotopic tumors; assay: Orthotopic Hep3B xenografts in CB17 SCID mice, tumor mass; type: in vivo, mouse
Text: For in vivo studies, an implanted mouse model of human HCC was generated in CB17SCID mice (Taconic, Hudson, N.Y.). Female mice between 4 and 5 weeks in age were purchased and acclimatized in M.D. Anderson Animal facilities for up to one week. All animals were handled, housed and studied in accordance with the Institutional Animal Care and Use Committee. Tumors were generated after orthotopic implantation of approximately 1.6 million cells into the liver of each mouse (10 mice per group). Bioluminescence imaging indicated tumor development in the majority of mice three weeks after implantation. Euthanasia was performed by carbon dioxide inhalation followed by cervical spine dislocation.
Cultured luciferase and GFP-expression human HCC cell lines (Hep3B and HepG2) were harvested from an exponentially growing culture and washed with PBS. The cells were re-suspended in 3 ml PBS and final centrifugation was performed at 1000 RPM for 5 minutes. Supernatant was discarded and the cell pellet was used for implantation. The concentration of cells achieved using this protocol was 160,000 cells per micro liter. The cells were kept on ice and animals were injected within 3-4 hours after final centrifugation.
Before surgery, hair was removed from the ventral surface of the abdomen using clippers. Mice were anesthetized using 2.5% isoflurane. The surgical field was sterilized with 70% (v/v) ethanol in water. Mice were placed supine on a heating pad and the surgical site was sterilized using povidone iodine swab sticks. After confirming induction of anesthesia, an approximately 1-cm transverse incision was made in the skin of the upper abdomen slightly left of the midline. Deeper layers of muscle and peritoneum were incised and hemostasis was achieved using silver nitrate chemical cautery sticks. By applying gentle pressure on the lower abdomen and lower chest, the left lobe of the liver was eviscerated. […]
Mice with confirmed tumors on bioluminescence were then randomized in groups of 10. […] Sample size was calculated using Stata SE 12.1 for Mac (College Station, Tex.). […]

Structure (SMILES): Nc1ccn([C@@H]2O[C@H](CO)[C@@H](O)C2(F)F)c(=O)n1 [gemcitabine, 2′,2′-difluoro 2′-deoxycytidine]
- Mean γ-H2AX positive pixels/HPF [±SD] ([1]; RF then gemcitabine): 45430±18980 pixels/HPF
- Mean γ-H2AX positive pixels/HPF [±SD] ([1]; gemcitabine alone): 27258±8022 pixels/HPF
- Mean γ-H2AX positive pixels/HPF [±SD] ([1]; gemcitabine then RF): 46968±10284 pixels/HPF
- Mean tumor mass [±SD] ([2]; RF then gemcitabine (RF 10 min, 600 W, immediately followed by gemcitabine)): 180 ± 91 mg
- Mean tumor mass [±SD] ([2]; gemcitabine alone, 70 mg/kg/dose twice a week for three weeks): 661 ± 419 mg
- Mean tumor mass [±SD] ([2]; gemcitabine then RF (RF 24 hours later)): 291 ± 126 mg
